# Assay results published in ChEMBL document CHEMBL2163236, “7-Oxo-[1,4]oxazino[2,3,4-ij]quinoline-6-carboxamides as selective CB(2) cannabinoid receptor ligands: structural investigations around a novel class of full agonists” (J Med Chem, 2012).
# What was measured:
# Cannabinoid receptor 2 [1] = biological target: T1, Cannabinoid receptor 2 (Homo sapiens, UniProt P34972); assay: Displacement of [3H]CP-55940 from human recombinant CB2 receptor expressed in CHO cell membranes incubated for 60 mins by scintillation counting
# Cannabinoid receptor 1 [2] = biological target: Cannabinoid receptor 1 (Rattus norvegicus, UniProt P20272); assay: Displacement of [3H]CP-55940 from CB1 receptor in Sprague-Dawley rat brain by scintillation counting
# Homo sapiens = species on record: Homo sapiens; assay: Selectivity ratio of Ki for human recombinant CB1 receptor to KI for human recombinant CB2 receptor
# Cannabinoid receptor 2 [3] = biological target: T1, Cannabinoid receptor 2; assay: Agonist activity at human recombinant CB2 receptor expressed in CHO cell membranes assessed as inhibition of forskolin-induced cAMP accumulation; type: functional, cell-based
# Cannabinoid receptor 2 [4] = biological target: T2, Cannabinoid receptor 2 (Rattus norvegicus, UniProt Q9QZN9); assay: Displacement of [3H]CP-55940 from CB2 receptor in Sprague-Dawley rat spleen by scintillation counting
# T2 sequence (Q9QZN9 whole entry): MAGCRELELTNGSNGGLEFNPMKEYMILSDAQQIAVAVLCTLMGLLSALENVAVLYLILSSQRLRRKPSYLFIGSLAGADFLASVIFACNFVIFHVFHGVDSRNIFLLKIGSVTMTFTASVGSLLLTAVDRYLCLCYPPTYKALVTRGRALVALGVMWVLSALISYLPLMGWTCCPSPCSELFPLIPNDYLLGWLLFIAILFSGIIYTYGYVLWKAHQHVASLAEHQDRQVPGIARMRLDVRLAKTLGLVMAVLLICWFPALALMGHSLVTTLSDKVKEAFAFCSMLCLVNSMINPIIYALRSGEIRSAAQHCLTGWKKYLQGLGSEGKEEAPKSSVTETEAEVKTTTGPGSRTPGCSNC
# Cannabinoid receptor 1 [5] = biological target: Cannabinoid receptor 1 (Homo sapiens, UniProt P21554); assay: Displacement of [3H]CP-55940 from human recombinant CB1 receptor expressed in CHO cell membranes incubated for 90 mins by scintillation counting
# Sequence of Cannabinoid receptor 1 (Homo sapiens, UniProt P21554) (P21554 whole entry): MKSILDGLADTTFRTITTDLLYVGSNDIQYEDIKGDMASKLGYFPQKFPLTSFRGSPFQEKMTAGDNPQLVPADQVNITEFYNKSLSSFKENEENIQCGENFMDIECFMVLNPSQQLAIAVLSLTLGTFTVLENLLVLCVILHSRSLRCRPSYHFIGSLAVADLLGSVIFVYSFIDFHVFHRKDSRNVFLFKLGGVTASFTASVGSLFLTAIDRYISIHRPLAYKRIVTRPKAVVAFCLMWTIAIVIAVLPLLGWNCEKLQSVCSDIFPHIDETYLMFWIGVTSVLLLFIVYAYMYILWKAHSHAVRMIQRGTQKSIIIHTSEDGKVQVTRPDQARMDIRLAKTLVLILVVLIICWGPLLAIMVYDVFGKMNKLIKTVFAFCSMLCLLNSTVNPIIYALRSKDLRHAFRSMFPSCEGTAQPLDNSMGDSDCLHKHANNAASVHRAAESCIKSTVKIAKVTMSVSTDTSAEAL
# T1 sequence (P34972 whole entry): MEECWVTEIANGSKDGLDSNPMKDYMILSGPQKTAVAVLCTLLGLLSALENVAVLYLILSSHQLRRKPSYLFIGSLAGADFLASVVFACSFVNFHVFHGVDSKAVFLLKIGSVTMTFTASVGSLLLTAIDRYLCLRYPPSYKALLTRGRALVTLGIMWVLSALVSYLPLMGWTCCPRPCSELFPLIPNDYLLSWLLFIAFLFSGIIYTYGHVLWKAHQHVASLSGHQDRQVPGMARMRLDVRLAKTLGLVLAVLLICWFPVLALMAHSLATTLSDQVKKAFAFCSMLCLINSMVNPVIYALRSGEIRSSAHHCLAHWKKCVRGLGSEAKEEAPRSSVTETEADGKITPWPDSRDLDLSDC
# Sequence of Cannabinoid receptor 1 (Rattus norvegicus, UniProt P20272) (P20272 whole entry): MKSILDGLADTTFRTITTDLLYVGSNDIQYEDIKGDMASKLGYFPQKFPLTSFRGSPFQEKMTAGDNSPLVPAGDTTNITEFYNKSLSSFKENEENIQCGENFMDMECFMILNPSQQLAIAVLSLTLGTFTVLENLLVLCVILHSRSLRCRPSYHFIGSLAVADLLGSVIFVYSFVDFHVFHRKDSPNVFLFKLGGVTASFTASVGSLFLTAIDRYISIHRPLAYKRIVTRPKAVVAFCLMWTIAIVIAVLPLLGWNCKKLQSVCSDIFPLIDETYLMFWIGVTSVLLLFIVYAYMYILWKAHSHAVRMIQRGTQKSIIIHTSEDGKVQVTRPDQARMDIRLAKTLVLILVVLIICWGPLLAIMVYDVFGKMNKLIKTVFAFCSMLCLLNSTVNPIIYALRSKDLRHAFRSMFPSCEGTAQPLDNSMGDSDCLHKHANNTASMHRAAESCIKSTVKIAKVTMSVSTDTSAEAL
SMILES,Ki (Cannabinoid receptor 2 [1]) [nM],Ki (Cannabinoid receptor 1 [2]) [nM],Ratio Ki (Homo sapiens),IC50 (Cannabinoid receptor 2 [3]) [nM],Ki (Cannabinoid receptor 2 [4]) [nM],Ki (Cannabinoid receptor 1 [5]) [nM]
C[C@@H]1COc2cccc3c(=O)c(C(=O)NC4CCCCC4)cn1c23,24,3560,119,90,30,2870
C[C@H]1COc2cccc3c(=O)c(C(=O)NC4CCCCC4)cn1c23,188,5240,25,724,250,4650
C[C@@H]1COc2cccc3c(=O)c(C(=O)NC45CC6CC(CC(C6)C4)C5)cn1c23,47,> 10000,> 212,153,52,> 10000
C[C@H]1COc2cccc3c(=O)c(C(=O)NC45CC6CC(CC(C6)C4)C5)cn1c23,78,> 10000,> 128,250,86,> 10000
CC[C@@H]1COc2cccc3c(=O)c(C(=O)NC4CCCCCC4)cn1c23,4.12,126,25,17.2,6.03,105
CC[C@H]1COc2cccc3c(=O)c(C(=O)NC4CCCCCC4)cn1c23,187,913,4.5,682,203,843
CC[C@@H]1COc2cccc3c(=O)c(C(=O)NC45CC6CC(CC(C6)C4)C5)cn1c23,4.93,242,40,18.1,6.17,197
CC[C@H]1COc2cccc3c(=O)c(C(=O)NC45CC6CC(CC(C6)C4)C5)cn1c23,88,653,7,413,97,578
CC(C)[C@@H]1COc2cccc3c(=O)c(C(=O)NC45CC6CC(CC(C6)C4)C5)cn1c23,1.24,95,71,9.84,1.75,88
CC(C)[C@H]1COc2cccc3c(=O)c(C(=O)NC45CC6CC(CC(C6)C4)C5)cn1c23,16.2,864,53,55,19.3,858
CC(C)C[C@@H]1COc2cccc3c(=O)c(C(=O)NC45CC6CC(CC(C6)C4)C5)cn1c23,9.24,> 10000,> 1080,36,10.2,> 10000
O=C(NC12CC3CC(CC(C3)C1)C2)c1cn2c3c(cccc3c1=O)OC[C@H]2Cc1ccccc1,3.72,121,28,17.5,4.65,105
CC1(C)COc2cccc3c(=O)c(C(=O)NC45CC6CC(CC(C6)C4)C5)cn1c23,56,276,4,242,68,221
CCC1COc2cccc3c(=O)c(C(=O)NC45CC6CC(CC(C6)C4)C5)cn1c23 (racemic),7.83,725,88,38,13.5,689
CCC1COc2c(N3CCCC3)ccc3c(=O)c(C(=O)NC45CC6CC(CC(C6)C4)C5)cn1c23 (racemic),8.12,> 10000,> 1230,29,10.5,> 10000
CCC1COc2c(N3CCN(C)CC3)ccc3c(=O)c(C(=O)NC45CC6CC(CC(C6)C4)C5)cn1c23 (racemic),42,> 10000,> 238,196,61,> 10000
CCC1COc2cccc3c(=O)c(C(=O)NC4C5CC6CC(C5)CC4C6)cn1c23 (racemic),13.2,425,30,57,16.1,389
CCC1COc2cccc3c(=O)c(C(=O)NC(C)CCC(C)C)cn1c23 (racemic),15.8,> 10000,> 633,62,196,> 10000
CCC1COc2cccc3c(=O)c(C(=O)Nc4ccncc4)cn1c23 (racemic),152,1380,8,683,183,1150
CCC1COc2cccc3c(=O)c(C(=O)Nc4nccs4)cn1c23 (racemic),265,1620,5,1130,324,1360

SMILES,Ki (Cannabinoid receptor 2 [1]) [nM],Ki (Cannabinoid receptor 1 [2]) [nM],Ratio Ki (Homo sapiens),IC50 (Cannabinoid receptor 2 [3]) [nM],Ki (Cannabinoid receptor 2 [4]) [nM],Ki (Cannabinoid receptor 1 [5]) [nM]
CCC1COc2cccc3c(=O)c(C(=O)N(C(C)C)C(C)C)cn1c23 (racemic),85,> 10000,> 118,423,104,> 10000
CCCC1COc2cccc3c(=O)c(C(=O)NC4CCCCC4)cn1c23 (racemic),0.32,13.4,32,1.53,1.84,10.2
CCCC1COc2cccc3c(=O)c(C(=O)NC45CC6CC(CC(C6)C4)C5)cn1c23 (racemic),2.34,240,92,15.3,2.73,215
CCCC1COc2cccc3c(=O)c(C(=O)NC45CC6CC(C)(CC(C)(C6)C4)C5)cn1c23 (racemic),3.62,476,55,20,10.7,200
CCCC1COc2ccc(C)c3c(=O)c(C(=O)NC4CCCCC4)cn1c23 (racemic),38,874,20,122,43,756
CCCC1COc2ccc(C)c3c(=O)c(C(=O)NC45CC6CC(CC(C6)C4)C5)cn1c23 (racemic),10.4,476,43,42,13.2,450
O=C(NC1CCCCC1)c1cn2c3c(cccc3c1=O)OCC2C1CC1 (racemic),15.3,123,7,67,18.2,102
O=C(NC1CCCCCC1)c1cn2c3c(cccc3c1=O)OCC2C1CC1 (racemic),3.12,101,29,12.4,3.52,91
O=C(NC12CC3CC(CC(C3)C1)C2)c1cn2c3c(cccc3c1=O)OCC2C1CC1 (racemic),8.92,482,44,32,10.3,389
CC(C)C1COc2cccc3c(=O)c(C(=O)NC45CC6CC(CC(C6)C4)C5)cn1c23 (racemic),3.74,366,86,12.4,4.22,323
CCC1COc2c(F)ccc3c(=O)c(C(=O)NC45CC6CC(CC(C6)C4)C5)cn1c23 (racemic),7.34,452,53,27,9.51,389
CCC1COc2c(F)c(F)cc3c(=O)c(C(=O)NC45CC6CC(CC(C6)C4)C5)cn1c23 (racemic),33,1820,53,145,37,1750
CCC1COc2c(OC)ccc3c(=O)c(C(=O)NC45CC6CC(CC(C6)C4)C5)cn1c23 (racemic),6.78,589,77,24,9.12,521
O=C(NC12CC3CC(CC(C3)C1)C2)c1cn2c3c(cccc3c1=O)OC(c1ccccc1)C2c1ccccc1 (racemic),> 10000,> 10000,,,> 10000,> 10000
Cc1cc2c3c(c1)c(=O)c(C(=O)NC14CC5CC(CC(C5)C1)C4)cn3C(c1ccccc1)CO2 (racemic),,,,472,,
CC1COc2cccc3c(=O)c(C(=O)NC4CCCCCC4)cn1c23 (racemic),38,> 10000,> 263,210,52,> 10000
CC1COc2cccc3c(=O)c(C(=O)NC45CC6CC(CC(C6)C4)C5)cn1c23 (racemic),47,> 10000,> 212,230,55,> 10000
CCC1COc2cccc3c(=O)c(C(=O)NC4CCCCC4)cn1c23 (racemic),22,972,37,62,24,821
CCC1COc2cccc3c(=O)c(C(=O)NC4CCCCCC4)cn1c23 (racemic),9.24,498,47,42,11.4,433
